Reference: patent US10246442B2, “4-Aminoquinazolin compounds as prolyl hydroxylase inhibitors” (JANSSEN PHARMACEUTICA NV, priority 2011, dated 2019)

How the values were obtained:
[1] = biological target: PHD2181-417 (Homo sapiens (Human), UniProt Q9GZT9); experiment: PHD enzymatic assay ([14C]-succinic acid production); assay type: biochemical; conditions: purified PHD2181-417, HIF-1α peptide substrate, 30 min pre-incubation; average of results
Method in brief: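 Recombinant human PHD2 (aa 181-417, E. coli-expressed, tags cleaved) with peptide substrate (10 μM) and [5-14C]-2-oxoglutarate in Tris pH 7.5 with catalase, DTT and ascorbate, 10 min reaction after 30 min compound pre-incubation; compounds at 100 μM final, 1% DMSO. [14C]-succinate separated by DNP precipitation and beta-counted; IC50 from three-parameter logistic fit.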

[2] = test system: HIF1-α, Hela cells; experiment: Cellular assay for HIF1-α in Hela cells; assay type: cell-based; conditions: Homo sapiens, 100 μM compound, 6 hours, percent of HIF stimulation relative to assay control compound 7-[(4-Chloro-phenyl)-(5-methyl-isoxazol-3-ylamino)-methyl]-quinolin-8-ol
Procedure: Cellular Assay for HIF1-α
Hela cells (ATCC, Manassas, Va.) were plated in 96-well plates at 20,000 cells per well in 100 μl of DMEM containing 10% fetal bovine serum, 1% non-essential amino acids, 50 IU/mL of penicillin and 50 μg/mL of streptomycin (all cell culture reagents from Invitrogen, Carlsbad, Calif.). 24 hours after plating, changed media to 100 ul of DMEM without 10% fetal bovine serum, 1.1 μl of the stock solution for each compound was added and incubated for 6 hours. All compounds were tested with a final compound concentration of 100 μM. The supernatant was removed and the cells were lysed in 55 μl of MSD lysis buffer containing protease inhibitors. 50 μl of the cell lysate was then transferred to a blocked MSD human HIF-1α detection plate (Meso-Scale Discovery, Gaithersburg, Md., as per manufacturers protocol), and incubated at room temperature on an orbital shaker for 2 hour. After 3 washes in PBS, 25 μl of 20 nM anti-HIF1α a detection antibody was added and incubated for 1 hour at room temperature on an orbital shaker. After 3 washes in PBS, 150 μl of 1× read buffer was added and the plate was then read on a MSD SECTOR instrument. Data was analyzed by determining the percent of HIF stimulation in the presence of 100 μM compound relative to an assay control compound, 7-[(4-Chloro-phenyl)-(5-methyl-isoxazol-3-ylamino)-methyl]-quinolin-8-ol.

PHD2181-417, sequence (Q9GZT9 181-417): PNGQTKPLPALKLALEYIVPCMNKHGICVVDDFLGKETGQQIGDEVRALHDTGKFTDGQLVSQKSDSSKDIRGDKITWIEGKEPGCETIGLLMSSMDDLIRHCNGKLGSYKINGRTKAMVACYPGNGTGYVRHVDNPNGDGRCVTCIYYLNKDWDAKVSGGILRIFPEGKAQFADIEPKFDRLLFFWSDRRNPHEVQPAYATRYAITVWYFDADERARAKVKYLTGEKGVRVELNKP

Enzyme pIC50 [1]	Structure (SMILES)	activation at 100 µM [2] [%]
6.7	O=C(O)c1cnn(-c2nc(NCC3CC3)c3ccc(Oc4ccccc4)cc3n2)c1 [Example 98, 1-(4-((Cyclopropylmethyl)amino)-7-phenoxyquinazolin-2-yl)-1H-pyrazole-4-carboxylic acid]	46
6.5	O=C(O)c1cnn(-c2nc(NC3CCOCC3)c3cc(Oc4ccccc4)ccc3n2)c1 [Example 76, 1-(6-Phenoxy-4-((tetrahydro-2H-pyran-4-yl)amino)quinazolin-2-yl)-1H-pyrazole-4-carboxylic acid]	19
7.1	O=C(O)c1cnn(-c2nc(N3CCC(F)CC3)c3cc(C4CCCCC4)ccc3n2)c1 [Example 31, 1-(6-Cyclohexyl-4-(4-fluoropiperidin-1-yl)quinazolin-2-yl)-1H-pyrazole-4-carboxylic acid]	34
6.9	CC(=O)NC1CCN(c2nc(-n3cc(C(=O)O)cn3)nc3cc(F)c(Oc4c(C)cccc4C)cc23)CC1 [Example 21, 1-(4-(4-Acetamidopiperidin-1-yl)-6-(2,6-dimethylphenoxy)-7-fluoroquinazolin-2-yl)-1H-pyrazole-4-carboxylic acid]	62
6.9	O=C(O)c1cnn(-c2nc(NCC3CCCCC3)c3cc(C4CCCCC4)ccc3n2)c1 [Example 39, 1-(6-Cyclohexyl-4-((cyclohexylmethyl)amino)quinazolin-2-yl)-1H-pyrazole-4-carboxylic acid]	6.1
7.5	O=C(O)c1cnn(-c2nc(NCC3CCCCC3)c3cc(Oc4ccc(Cl)cc4)ccc3n2)c1 [Example 64, 1-(6-(4-Chlorophenoxy)-4-((cyclohexylmethyl)amino)quinazolin-2-yl)-1H-pyrazole-4-carboxylic acid]	1.5
6.5	O=C(O)c1cnn(-c2nc(NC3CC3)c3cc(-c4ccccc4)ccc3n2)c1 [Example 51, 1-(4-(Cyclopropylamino)-6-phenylquinazolin-2-yl)-1H-pyrazole-4-carboxylic acid]	40
7.1	O=C(O)c1cnn(-c2nc(Nc3ccccc3Cl)c3cc(C4CCCCC4)ccc3n2)c1 [Example 29, 1-(4-((2-Chlorophenyl)amino)-6-cyclohexylquinazolin-2-yl)-1H-pyrazole-4-carboxylic acid]	7.8
7.0	Cc1cccc(C)c1Oc1cc2c(N3CCSCC3)nc(-n3cc(C(=O)O)cn3)nc2cc1F [Example 18, 1-(6-(2,6-Dimethylphenoxy)-7-fluoro-4-thiomorpholinoquinazolin-2-yl)-1H-pyrazole-4-carboxylic acid]	15
6.7	Cc1cccc(C)c1Oc1cc2c(N3CCCN(C)CC3)nc(-n3cc(C(=O)O)cn3)nc2cc1F [Example 17, 1-(6-(2,6-Dimethylphenoxy)-7-fluoro-4-(4-methyl-1,4-diazepan-1-yl)quinazolin-2-yl)-1H-pyrazole-4-carboxylic acid]	47
7.0	Nc1nc(-n2cc(C(=O)O)cn2)nc2ccc(-c3ccccc3)cc12 [Example 53, 1-(4-Amino-6-phenylquinazolin-2-yl)-1H-pyrazole-4-carboxylic acid]	16
7.2	CCN(C)c1nc(-n2cc(C(=O)O)cn2)nc2cc(Oc3ccccc3)ccc12 [Example 94, 1-(4-(Ethyl(methyl)amino)-7-phenoxyquinazolin-2-yl)-1H-pyrazole-4-carboxylic acid]	83
6.8	O=C(O)c1cnn(-c2nc(NCC3CCCCC3)c3ccc(Oc4ccccc4)cc3n2)c1 [Example 84, 1-(4-((Cyclohexylmethyl)amino)-7-phenoxyquinazolin-2-yl)-1H-pyrazole-4-carboxylic acid]	4.6
7.0	O=C(O)c1cnn(-c2nc(NC3CCCCC3)c3ccc(Oc4ccccc4)cc3n2)c1 [Example 97, 1-(4-(Cyclohexylamino)-7-phenoxyquinazolin-2-yl)-1H-pyrazole-4-carboxylic acid]	55
5.5	O=C(O)c1cnn(-c2nc(N3CCCC3)c3ccc(-c4ccccc4)cc3n2)c1 [Example 81, 1-(7-Phenyl-4-(pyrrolidin-1-yl)quinazolin-2-yl)-1H-pyrazole-4-carboxylic acid]	10
7.3	O=C(O)c1cnn(-c2nc(N3CCSCC3)c3cc(Oc4ccc(Cl)cc4)ccc3n2)c1 [Example 67, 1-(6-(4-Chlorophenoxy)-4-thiomorpholinoquinazolin-2-yl)-1H-pyrazole-4-carboxylic acid]	31
6.7	CC(=O)NC1CCN(c2nc(-n3cc(C(=O)O)cn3)nc3ccc(-c4ccccc4)cc23)CC1 [Example 55, 1-(4-(4-Acetamidopiperidin-1-yl)-6-phenylquinazolin-2-yl)-1H-pyrazole-4-carboxylic acid]	28
6.8	CC(C)C1CCN(c2nc(-n3cc(C(=O)O)cn3)nc3cc(Oc4ccccc4)ccc23)CC1 [Example 85, 1-(4-(4-isopropylpiperidin-1-yl)-7-phenoxyquinazolin-2-yl)-1H-pyrazole-4-carboxylic acid]	1.7
6.3	O=C(O)c1cnn(-c2nc(NC3CC3)c3ccc(Oc4ccccc4)cc3n2)c1 [Example 86, 1-(4-(Cyclopropylamino)-7-phenoxyquinazolin-2-yl)-1H-pyrazole-4-carboxylic acid]	13
7.2	O=C(O)c1cnn(-c2nc(N3CCCCCC3)c3cc(-c4ccccc4)ccc3n2)c1 [Example 48, 1-(4-(Azepan-1-yl)-6-phenylquinazolin-2-yl)-1H-pyrazole-4-carboxylic acid]	23
6.2	O=C(O)c1cnn(-c2nc(N3CCOCC3)c3ccc(Oc4ccccc4)cc3n2)c1 [Example 89, 1-(4-Morpholino-7-phenoxyquinazolin-2-yl)-1H-pyrazole-4-carboxylic acid]	17
6.6	CS(=O)(=O)Nc1nc(-n2cc(C(=O)O)cn2)nc2ccc(C3CCCCC3)cc12 [Example 40, 1-(6-Cyclohexyl-4-(methylsulfonamido)quinazolin-2-yl)-1H-pyrazole-4-carboxylic acid]	6.7
6.3	CC(C)(C)Nc1nc(-n2cc(C(=O)O)cn2)nc2cc(Oc3ccccc3)ccc12 [Example 99, 1-(4-(tert-Butylamino)-7-phenoxyquinazolin-2-yl)-1H-pyrazole-4-carboxylic acid]	31
7.3	CCN(CC)c1nc(-n2cc(C(=O)O)cn2)nc2ccc(Oc3ccccc3)cc12 [Example 74, 1-(4-(Diethylamino)-6-phenoxyquinazolin-2-yl)-1H-pyrazole-4-carboxylic acid]	81
6.9	N#CC1CCN(c2nc(-n3cc(C(=O)O)cn3)nc3ccc(C4CCCCC4)cc23)CC1 [Example 30, 1-(4-(4-Cyanopiperidin-1-yl)-6-cyclohexylquinazolin-2-yl)-1H-pyrazole-4-carboxylic acid]	77
